18 molecules from patent publication US6936602B1, “Benzazepine derivatives, process for the preparation of the same and uses thereof” (Takeda Chemical Industries, Ltd., priority 1999, dated 2005) can be followed below.

By melting point is commonly meant the temperature of the solid-liquid transition.

Structures are written as SMILES.

Consider `CCCCOCCOc1ccc(-c2ccc3c(c2)C=C(C(=O)Nc2ccc(CN(C)C4CCOCC4)cc2)CCN3Cc2cccc(OC)c2)cc1` [Compound 54, 7-(4-butoxyethoxyphenyl)-1-(3-methoxybenzyl)-N-[4-[[N-methyl-N-(tetrahydropyran-4-yl)amino]methyl]phenyl]-2,3-dihydro-1-benzazepine-4-carboxamide], for which the melting point is 107.5 to 108.5 °C.

In turn, `CCCCOCCOc1ccc(-c2ccc3c(c2)C=C(C(=O)Nc2ccc(CN(C)C4CCOCC4)cc2)CCN3Cc2ccccc2OC)cc1` [Compound 52, 7-(4-butoxyethoxyphenyl)-1-(2-methoxybenzyl)-N-[4-[[N-methyl-N-(tetrahydropyran-4-yl)amino]methyl]phenyl]-2,3-dihydro-1-benzazepine-4-carboxamide] returned a melting point of 111.5 to 112.5 °C.

In turn, `CCCCOCCOc1ccc(-c2ccc3c(c2)C=C(C(=O)Nc2ccc(CN(C)C4CCOCC4)cc2)CCN3c2cnc(C)o2)cc1` [Compound 44, 7-[4-(2-butoxyethoxy)phenyl]-1-(2-methyloxazol-5-yl)-N-[4-[[N-methyl-N-(tetrahydro-2H-pyran-4-yl)amino]methyl]phenyl]-2,3-dihydro-1H-1-benzazepine-4-carboxamide] returned a melting point of 125 to 128 °C.

Regarding `CC(C)OCCOc1ccc(-c2ccc3c(c2)C=C(C(=O)N(c2ccc(CN(C)C4CCOCC4)cc2)S(C)(=O)=O)CCN3)cc1` [Compound 15, 1-methylsulfonyl N-[4-[[N-methyl-N-(tetrahydro-2H-pyran-4-yl)amino]methyl]phenyl]-7-[4-(2-propoxy)ethoxyphenyl]-2,3-dihydro-1H-1-benzazepine-4-carboxamide], the melting point lay within 161 to 162 °C.

`CCCCOCCOc1ccc(-c2ccc3c(c2)C=C(C(=O)Nc2ccc(CN(C)C4CCOCC4)cc2)CCN3Cc2ccc(OC)cc2)cc1` [Compound 56, 7-(4-butoxyethoxyphenyl)-1-(4-methoxybenzyl)-N-[4-[[N-methyl-N-(tetrahydropyran-4-yl)amino]methyl]phenyl]-2,3-dihydro-1-benzazepine-4-carboxamide] gave a melting point of 151 to 152 °C.

Consider `CCCOCCOc1ccc(-c2ccc3c(c2)C=C(C(=O)Nc2ccc(CN(C)C4CCOCC4)cc2)CCN3Cc2cccc(OC)c2)cc1` [Compound 53, 1-(3-methoxybenzyl)-N-[4-[[N-methyl-N-(tetrahydropyran-4-yl)amino]methyl]phenyl]-7-(4-propoxyethoxyphenyl)-2,3-dihydro-1-benzazepine-4-carboxamide], for which the melting point fell in the range of 113 to 114 °C.

The molecule `CCCN1CCC(C(=O)Nc2ccc(CN(C)C3CCOCC3)cc2)=Cc2cc(-c3ccc(OCCOCC)cc3)ccc21` [Compound 25, 7-[4-(2-ethoxyethoxy)phenyl]-N-[4-[[N-methyl-N-(tetrahydro-2H-pyran-4-yl)amino]methyl]phenyl]-1-propyl-2,3-dihydro-1H-1-benzazepine-4-carboxamide] came in with a melting point of 144 to 147 °C.

Turning to `CN1CCC(C(=O)Nc2ccc(CN(C)C3CCOCC3)cc2)=Cc2cc(-c3ccc4c(c3)OCCO4)ccc21` [Compound 24, 7-(2,3-dihydro-1,4-benzodioxin-6-yl)-1-methyl-N-[4-[[N-methyl-N-(tetrahydro-2H-pyran-4-yl)amino]methyl]phenyl]-2,3-dihydro-1H-1-benzazepine-4-carboxamide], the melting point was 164 to 165 °C.

The molecule `CCCCOCCOc1ccc(-c2ccc3c(c2)C=C(C(=O)Nc2ccc(CN(C)C4CCOCC4)cc2)CCN3)cc1` [Compound 28, 7-[4-(2-butoxyethoxy)phenyl]-N-[4-[[N-methyl-N-(tetrahydro-2H-pyran-4-yl)amino]methyl]phenyl]-2,3-dihydro-1H-1-benzazepine-4-carboxamide] returned a melting point of 119 to 123 °C.

`CCCOCCN(CC)c1ccc(-c2ccc3c(c2)C=C(C(=O)Nc2ccc(CN(C)C4CCOCC4)cc2)CCN3C=O)cc1` [Compound 6, 7-[4-[N-ethyl-N-(2-propoxyethyl)amino]phenyl]-1-formyl-N-[4-[[N-methyl-N-(tetrahydro-2H-pyran-4-yl)amino]methyl]phenyl]-2,3-dihydro-1H-1-benzazepine-4-carboxamide]: the melting point was 146 to 149 °C.

Take `CCCCOCCOc1ccc(-c2ccc3c(c2)C=C(C(=O)Nc2ccc(CN(C)C4CCOCC4)cc2)CCN3Cc2cccc(OCCC)c2)cc1` [Compound 64, 7-(4-butoxyethoxyphenyl)-N-[4-[[N-methyl-N-(tetrahydropyran-4-yl)amino]methyl]phenyl]-1-(3-propoxybenzyl)-2,3-dihydro-1-benzazepine-4-carboxamide]: the melting point lay within 114.5 to 115.5 °C.

The molecule `CCOCCN(CC)c1ccc(-c2ccc3c(c2)C=C(C(=O)Nc2ccc(CN(C)C4CCOCC4)cc2)CCN3C=O)cc1` [Compound 5, 7-[4-[N-(2-ethoxyethyl)-N-ethylamino]phenyl]-1-formyl-N-[4-[[N-methyl-N-(tetrahydro-2H-pyran-4-yl)amino]methyl]phenyl]-2,3-dihydro-1H-1-benzazepine-4-carboxamide] registered a melting point of 162 to 164 °C.

The molecule `CCCCOCCOc1ccc(-c2ccc3c(c2)C=C(C(=O)Nc2ccc(CN(C)C4CCOCC4)cc2)CCN3c2ccc(S(=O)(=O)N(C)C)cc2)cc1` [Compound 47, 7-[4-(2-butoxyethoxy)phenyl]-1-(N,N-dimethyl-4-sulfamoylphenyl)-N-[4-[[N-methyl-N-(tetrahydro-2H-pyran-4-yl)amino]methyl]phenyl]-2,3-dihydro-1H-1-benzazepine-4-carboxamide] registered a melting point of 94 to 98 °C.

In turn, `CCCOCCOc1ccc(-c2ccc3c(c2)C=C(C(=O)Nc2ccc(CN(C)C4CCOCC4)cc2)CCN3c2ccccc2)cc1.Cl` displayed a melting point of 223 to 224 °C.

Molecule `CCCOCCOc1ccc(-c2ccc3c(c2)C=C(C(=O)Nc2ccc(CN(C)C4CCOCC4)cc2)CCN3CCCOC)cc1` [Compound 103, 1-(3-methoxypropyl)-N-[4-[[N-methyl-N-(tetrahydropyran-4-yl)amino]methyl]phenyl]-7-[4-(2-propoxyethoxy)phenyl]-2,3-dihydro-1H-1-benzazepine-4-carboxamide] displayed a melting point of 87 to 90 °C.

Regarding `CC#CCN1CCC(C(=O)Nc2ccc(CN(C)C3CCOCC3)cc2)=Cc2cc(-c3ccc(OCCOCCCC)cc3)ccc21` [Compound 95, 7-[4-(2-butoxyethoxy)phenyl]-1-(2-butynyl)-N-[4-[N-methyl-N-(tetrahydropyran-4-yl)aminomethyl]phenyl]-2,3-dihydro-1-benzazepine-4-carboxamide], the melting point was 129 to 131 °C.

`CCCOCCOc1ccc(-c2ccc3c(c2)C=C(C(=O)Nc2ccc(CN(C)C4CCOCC4)cc2)CCN3C(=O)CC)cc1` [Compound 29, 1-propionyl-7-[4-(2-propoxyethoxy)phenyl]-N-[4-[[N-methyl-N-(tetrahydro-2H-pyran-4-yl)amino]methyl]phenyl]-2,3-dihydro-1H-1-benzazepine-4-carboxamide] gave a melting point of 167 to 169 °C.

Molecule `CCOCCCOc1ccc(-c2ccc3c(c2)C=C(C(=O)Nc2ccc(CN(C)C4CCOCC4)cc2)CCN3S(C)(=O)=O)cc1` [Compound 8, 7-[4-(3-ethoxypropoxy)phenyl)-1-methanesulfonyl-N-[4-[[N-methyl-N-(tetrahydro-2H-pyran-4-yl)amino]methyl]phenyl]-2,3-dihydro-1H-1-benzazepine-4-carboxamide] had a melting point of 157 to 160 °C.
